Results from ChEMBL document CHEMBL1122580, “Adenosine deaminase inhibitors. Synthesis of deaza analogues of erythro-9-(2-hydroxy-3-nonyl)adenine” (J Med Chem, 1984).

What was measured:
Adenosine deaminase [1] = target: T1, Adenosine deaminase (Bos taurus, UniProt P56658); assay: Binding affinity against calf intestine adenosine deaminase enzyme
T1 sequence (P56658 whole entry): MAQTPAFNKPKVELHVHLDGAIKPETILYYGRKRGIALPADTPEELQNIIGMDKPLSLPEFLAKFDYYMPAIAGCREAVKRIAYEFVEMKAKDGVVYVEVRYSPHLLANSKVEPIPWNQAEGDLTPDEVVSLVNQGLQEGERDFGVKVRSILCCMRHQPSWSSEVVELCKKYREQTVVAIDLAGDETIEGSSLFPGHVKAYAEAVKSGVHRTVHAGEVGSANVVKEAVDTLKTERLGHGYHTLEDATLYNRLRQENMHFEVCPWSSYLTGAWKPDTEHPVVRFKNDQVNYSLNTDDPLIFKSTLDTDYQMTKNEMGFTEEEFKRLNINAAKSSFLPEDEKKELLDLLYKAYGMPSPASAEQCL

Adenosine deaminase [2] = target: T1, Adenosine deaminase; assay: Binding affinity against calf intestine adenosine deaminase enzyme; Not Active

| SMILES | Ki (Adenosine deaminase [1]) | Ki (Adenosine deaminase [2]) |
| --- | --- | --- |
| OC[C@H]1O[C@@H](n2cnc3cncnc32)[C@H](O)[C@@H]1O [NEBULARINE] | 15000 nM | – |
| CCCCCCC(C(C)O)n1cnc2cncnc21 (stereo not given) | 840 nM | – |
| CCCCCCC(C(C)O)n1cnc2c(N)ccnc21 (stereo not given) | 160 nM | – |
| OC[C@H]1O[C@@H](n2cnc3cnccc32)[C@H](O)[C@@H]1O | – | Not Active |
| Nc1nccc2c1ncn2[C@@H]1O[C@H](CO)[C@@H](O)[C@H]1O | 360000 nM | – |
| CCCCCCC(C(C)O)n1cnc2cnccc21 (stereo not given) | 120 nM | – |
| CCCCCC[C@@H]([C@@H](C)O)n1cnc2c(N)ncnc21 [EHNA] | 7 nM | – |
| OC[C@H]1OC(n2cnc3cccnc32)[C@H](O)[C@@H]1O (stereo not given in full) | 42000 nM | – |
| Nc1ccnc2c1ncn2[C@@H]1O[C@H](CO)[C@@H](O)[C@H]1O | 660 nM | – |
| CCCCCCC(C(C)O)n1cnc2c(N)nccc21 (stereo not given) | 10 nM | – |
